“Also recorded” adds a separate entry of the source.

The source of these data is patent US12241890B2, “Methods for generating barcoded nucleic acid molecules using fixed cells” (10X Genomics, Inc., priority 2019, dated 2025).

In assay [1] the test system is PFA-fixed PBMCs. Nature of the assay: Bulk un-fixing of PFA-fixed PBMCs, bulk RNA isolation and bulk RNA sequencing (Example 1). The class given is cell-based. Particulars: 4% PFA-fixed PBMCs, 50 mM un-fixing agent, 0.2% SDS, 10 mU/mL Proteinase K, 40° C. 2 h; for complexity of the transcriptomic library relative to no treatment of the fixed PBMCs (FIG. 8): estimated with Preseq. The procedure:
Un-fixing agent solutions: the un-fixing agent of compounds (1), (4), (8), and (11) were each formulated in 30 mmol Tris buffer, pH 6.8 to a target concentration of 80 mM and the pH was adjusted to pH 6.5 using 2M NaOH. The final formulation was filtered through a 0.2 μm nylon syringe filter before addition into final composition of 50 mM of the un-fixing agent compound, 0.2% SDS, 10 mU/mL of Proteinase K and 0.2 U/mL RNAse inhibitor in 30 mM Tris, pH 6.8.
Bulk Un-fixing: PBMCs were fixed with 4% PFA for 24 h at 4° C. and quenched with 10% Fetal Bovine Serum (“FBS”) in PBS. The PFA-fixed PBMCs were treated with an un-fixing agent solution of compounds (1), (4), (8), or (11) formulated as described above at 40° C. for 2 h. Three different control samples also were prepared without un-fixing agent added: (1) fresh PBMCs (“Fresh Pellet” control); (2) PBMCs fixed with 4% PFA for 24 h then treated with 0.2% SDS, 10 mU/mL Proteinase K, and 0.2 U/mL RNAse inhibitor in 30 mM Tris, pH 6.8 at 40° C. for 2 h (“Fixed+PK, No UF agt.” control); and (3) PBMCs fixed with 4% PFA for 24 h (“fixed no un-fixing agent” control).
Bulk RNA isolation: After the bulk un-fixing treatment of the PFA-fixed PBMCs, the resulting treated (and control) samples were centrifuged at 450 g for 5 min and pellet as well as supernatant were collected. RNA isolation from collected pellets and supernatants was performed using RNeasy Plus Mini Kit (Qiagen, Cat #_74134) and RNeasy MinElute Cleanup Kit (Qiagen, Cat #74204), respectively. Isolated RNA was quantified using Qubit™ RNA HS Assay Kit (Invitrogen, Cat #Q32855) and Agilent RNA ScreenTape System (Agilent Technologies).
Bulk RNA sequencing: RNA could not be isolated from the “fixed no un-fixing agent” control sample. […] The “Fresh Pellet” control data was obtained by sequencing following bulk RNA isolation using the Qiagen kit without performing the 10× Genomics Single Cell 3′V3 protocol described below. For the four un-fixing agent treated samples and the remaining control samples described above, cDNA amplification was performed using an equivalent of 10 ng RNA. Post cDNA amplification, library prep was performed according to the 10× Genomics Single Cell 3′V3 protocol (10× Genomics, Pleasanton, CA, USA). A 3000-cell load of fresh PBMCs was used as a single cell reference (“Fresh SC3P”) and library prep was performed using Single Cell 3′V3 protocol (10× Genomics, Pleasanton, CA, USA). The final libraries were sequenced to between 25 and 100 million reads on a NovaSeq 6000 sequencer (Illumina Inc., San Diego, CA, USA). Bulk library complexity was estimated using the software package Preseq, as described by Daley and Smith (see e.g., Daley and Smith, “Predicting the molecular complexity of sequencing libraries,” Nature Methods 10:325-327, 2013). Library complexity as used here refers to the estimated number of unique RNA molecules aligned properly to the transcriptome (i.e., reads considered to be informative and used for gene expression counting) as a function of all sequenced reads. Gene expression counts were down-sampled across libraries to match the lowest sequencing depth and pairwise gene expression correlations were computed as the Pearson correlation (R^2) of gene expression counts between samples. When comparing gene expression data from control, unfixed PBMCs, gene expression counts were summed across cells to produce pseudo-bulk gene expression counts, as is customary in commercial gene expression analysis software (e.g., 10× Genomics, Pleasanton, CA, USA).

For assay [2], the system named is RNA treated with formaldehyde. Particulars: Karmakar et al., Nature Chemistry 7: 752-758 (2015); cited from earlier work.
The test system of assay [3] is PFA-fixed Jurkats. The experiment in a line: Bulk un-fixing of PFA-fixed Jurkats with proline analog un-fixing agents and cold-active protease, RNA yield (Example 10). The class given is cell-based. Particulars: 4% PFA-fixed Jurkats; 100 mM un-fixing agent, 10 U/mL ArcticZymes Proteinase where present; 14-25° C. 90 min then 80° C. 15 min. How it is done: B. Un-fixing agent stock solutions: the proline analog un-fixing agents of compounds (12), (13), (14), and (15) were each formulated in 50 mmol Tris buffer, pH 8.3 to a target concentration of 300 mM and the pH was adjusted to pH 8.3 using 2M NaOH. The final formulation was filtered through a 0.2 μm nylon syringe filter before addition into final composition of 100 mM of the un-fixing agent compound, 10 U/mL ArcticZymes Proteinase and 0.2 U/mL RNAse inhibitor in 50 mM Tris, pH 8.3.
C. Protease stock solution: A stock solution of 10 U/mL of the cold-active protease, ArcticZymes Proteinase (ArcticZymes Technologies ASA, Tromso, Norway) was stored at −20° C.
D. Bulk un-fixing/protease treatment of fixed cells: Jurkats were fixed with 4% PFA for 24 h at 4° C. and quenched with 10% Fetal Bovine Serum (“FBS”) in PBS. RNAse inhibitor was added to the fixed cell solution together with 10 U/mL of the cold-active protease, ArcticZymes Proteinase, 1 mM of the protease inhibitor, and 100 mM of one of each of the tested un-fixing agents: compound (8), (12), (13), (14), or (15). […]
E. Bulk RNA isolation: After the bulk un-fixing treatment of the PFA-fixed Jurkats, the resulting samples were centrifuged 5 minutes at 500 g, 4° C., and the supernatant and pellet fractions were collected separately. […] Isolated RNA was quantified using Qubit™ RNA HS Assay Kit (Invitrogen, Cat #Q32855).

For `Cc1ccc(N)c(S(=O)(=O)O)c1` [(4), 2-amino-5-methylbenzenesulfonic acid], in assay [1], the “RNA recovery per read sequenced relative to fixed PBMCs treated only with proteinase K and SDS” value is “increased RNA recovery per read sequenced”; the “transcriptomic mapping relative to fixed PBMC samples not treated with an un-fixing agent (FIG. 7)” value is given as “increased the transcriptomic mapping”; the “complexity of the transcriptomic library relative to no treatment of the fixed PBMCs (FIG. 8)” value was “higher complexity of the transcriptomic library”.

Consider `Cc1ccc(N)c(C(=O)O)c1` [Compound (1), 2-amino-5-methylbenzoic acid], for which, in assay [1], the “RNA recovery per read sequenced relative to fixed PBMCs treated only with proteinase K and SDS” value is on record as “increased RNA recovery per read sequenced”; the “recovery of RNA from the fixed biological sample” value was “highest recovery of RNA”; the “transcriptomic mapping relative to fixed PBMC samples not treated with an un-fixing agent (FIG. 7)” value is listed as “increased the transcriptomic mapping”; the “complexity of the transcriptomic library relative to no treatment of the fixed PBMCs (FIG. 8)” value is recorded as “higher complexity of the transcriptomic library”.

Consider `Cc1ccc(N)c(P(=O)(O)O)c1` [(3), (2-amino-5-methylphenyl)phosphonic acid], for which the “breakdown of aminal and hemi-aminal adducts in RNA treated with formaldehyde” value in assay [2] was “catalytically break down the aminal and hemi-aminal adducts”.

For `Nc1ccncc1P(=O)(O)O` [Compound (8), (4-aminopyridin-3-yl)phosphonic acid], in assay [1], the “transcriptomic mapping relative to fixed PBMC samples not treated with an un-fixing agent (FIG. 7)” value was “decreased the transcriptomic mapping” and the “complexity of the transcriptomic library relative to no treatment of the fixed PBMCs (FIG. 8)” value was “higher complexity of the transcriptomic library; also recorded: highest library complexity”. For the same molecule, in assay [3], the “Pellet Avg. RNA yield” value was 54 ng and the “Supernatant Avg. RNA yield” value was 200 ng.

Regarding “(2-amino-5-{[2-(2-poly-ethoxy)ethyl]carbamoyl} phenyl)phosphonic acid [(11)]”, the “transcriptomic mapping relative to fixed PBMC samples not treated with an un-fixing agent (FIG. 7)” value in assay [1] is “decreased the transcriptomic mapping”.
